Results from publication PMC8209673 (Cell reports, 2021).
Read-outs that look alike come from different tables or passages of the source.

Experiments:
[1] = test system: human motor neurons carrying SOD1, C9ORF72, and FUS mutations; conditions: ref Wainger et al., 2014; cited from earlier work
[2] = test system: lower motor neuron hyperexcitability; conditions: two clinical trials; ref Kovalchuk et al., 2018; Wainger et al., 2021; cited from earlier work
[3] = test system: SOD1(A4V) ALS motor neurons; format: cell-based, human
SOD1(A4V) motor neurons [4] = assay: Multiple electrode array; format: cell-based, human; conditions: for SOD1(A4V) motor neuron excitability: DRD2/3 agonists, MEA (Figure 4C)
SOD1(A4V) motor neurons [5] = assay: Patch clamp current-clamp recording of spontaneous firing; format: cell-based, human
DRD2 = conditions: ref McCall et al., 2005; cited from earlier work
DRD3 = conditions: cited from earlier work
patients with ALS = conditions: small-scale clinical trial; ref Nagata et al., 2016; cited from earlier work
[6] = test system: differentiated human ALS motor neurons; assay: Fura-2 calcium response imaging; format: cell-based; conditions: fura-2 imaging
[7] = calcium wave count normalized to the DMSO control (100.00)
[8] = activity normalized to the DMSO control (100.00)

## CCOC(=O)Nc1ccc(NCc2ccc(F)cc2)cc1N [retigabine]
[1]
  firing of human motor neurons: block firing
[2]
  lower motor neuron hyperexcitability in patients with ALS: decreased lower motor neuron hyperexcitability

## COCC(=O)O[C@]1(CCN(C)CCCc2nc3ccccc3[nH]2)CCc2cc(F)ccc2[C@@H]1C(C)C [Mibefradil]
[3]; [7]
  GCaMP6 (%) spontaneous motor neuron activity: 0.00 ± 0.0%
SOD1(A4V) motor neurons [4]
  MEA (%) spontaneous motor neuron activity: 0.02± 0.0%

## O=C(Nc1cnc(Cl)nc1)c1ccc(F)c(F)c1 [ICA 069673]
[3]; [7]
  GCaMP6 (%) spontaneous motor neuron activity: 13.33 ± 13.9%
SOD1(A4V) motor neurons [4]
  MEA (%) spontaneous motor neuron activity: 0.07 ± 0.0%

## Cc1cc(NC2CCCCC2)nc(-n2nc(C)cc2C)n1 [CyPPA (NS6277)]
[3]; [7]
  GCaMP6 (%) spontaneous motor neuron activity: 80.00 ± 27.4%
SOD1(A4V) motor neurons [4]
  MEA (%) spontaneous motor neuron activity: 12.72 ± 5.8%

## Nc1nc2c(ccc3ccccc32)s1 [SKA 31]
[3]; [7]
  GCaMP6 (%) spontaneous motor neuron activity: 123.33 ± 60.8%
SOD1(A4V) motor neurons [4]
  MEA (%) spontaneous motor neuron activity: 106.67 ± 44.4%

## CN[C@@H]1Cc2cccc3[nH]c(=O)n(c23)C1 [sumanirole]
SOD1(A4V) motor neurons [4]
  SOD1(A4V) motor neuron excitability: decreased SOD1(A4V) motor neuron excitability
SOD1(A4V) motor neurons [5]; patch clamp, accompanying the decrease in firing
  membrane potential change: slight hyperpolarization
SOD1(A4V) motor neurons [5]; patch clamp, sumanirole 10 μM perfusion, control neurons
  firing frequency: decrease in firing frequency
SOD1(A4V) motor neurons [5]; shRNA-mediated DRD2 knockdown, sumanirole 10 μM
  reduced excitability in DRD2 knockdown motor neurons: insensitive
DRD2
  Ki: 2 nM
DRD3
  Ki: 1940 nM

## Cc1cc(C)c(NC(=O)C2CC3CCC2C3)c(C)c1 (stereo not shown) [ML213]
[3]; [7]
  GCaMP6 (%) spontaneous motor neuron activity: 0.00 ± 0.0%
SOD1(A4V) motor neurons [4]
  MEA (%) spontaneous motor neuron activity: 0.38 ± 0.4%

## O=C1NC(=O)C(c2ccccc2)(c2ccccc2)N1 [Phenytoin]
[3]; [7]
  GCaMP6 (%) spontaneous motor neuron activity: 116.67 ± 56.5%
SOD1(A4V) motor neurons [4]; [8]
  MEA (%) spontaneous motor neuron activity: 103.78 ± 41.1%

## O=C1Nc2c(ccc(Cl)c2Cl)C1=NO [NS309]
[3]; [7]
  GCaMP6 (%) spontaneous motor neuron activity: 110.00 ± 38.4%
SOD1(A4V) motor neurons [4]
  MEA (%) spontaneous motor neuron activity: 86.56 ± 14.4%

## O=C(Nc1ccc(Cl)nc1)c1ccc(F)c(F)c1 [ICA-27243]
[3]; [7]
  GCaMP6 (%) spontaneous motor neuron activity: 0.00 ± 0.0%
SOD1(A4V) motor neurons [4]; [8]
  MEA (%) spontaneous motor neuron activity: 0.20 ± 0.1%

## CCn1c(=O)[nH]c2ccccc21 [1-Ebio (SB-423901)]
[3]; [7]
  GCaMP6 (%) spontaneous motor neuron activity: 103.33 ± 21.7%
SOD1(A4V) motor neurons [4]
  MEA (%) spontaneous motor neuron activity: 122.81 ± 27.8%

## CC(C)C[C@H]1C(=O)N2CCC[C@H]2[C@]2(O)O[C@](NC(=O)[C@@H]3C=C4c5cccc6[nH]c(Br)c(c56)C[C@H]4N(C)C3)(C(C)C)C(=O)N12 [bromocriptine]
SOD1(A4V) motor neurons [4]
  SOD1(A4V) motor neuron excitability: decreased SOD1(A4V) motor neuron excitability
Patients with ALS
  motor function in patients with ALS: sustained motor function

## Cc1o[nH]c(=O)c1C[C@H](N)C(=O)O [AMPA]
[6]
  calcium influx: elicits a large calcium influx

## COc1ccc(Cl)cc1[C@]1(F)C(=O)Nc2cc(C(F)(F)F)ccc21 [Maxipost (BMS-204352)]
[3]; [7]
  GCaMP6 (%) spontaneous motor neuron activity: 36.67 ± 39.8%
SOD1(A4V) motor neurons [4]
  MEA (%) spontaneous motor neuron activity: 22.32 ± 1.1%

## CN(C)C(=O)C(CCN1CCC(O)(c2ccc(Cl)cc2)CC1)(c1ccccc1)c1ccccc1 [Loperamide]
[3]
  GCaMP6 (%) spontaneous motor neuron activity: 0.00± 0.0%
SOD1(A4V) motor neurons [4]
  MEA (%) spontaneous motor neuron activity: 0.02 ± 0.0%

## CCOC(=O)Nc1ccc(NCc2ccc(F)cc2)nc1N [flupirtine]
[1]
  firing of human motor neurons: block firing
